# From US20230277508A1, “USE OF COMPOUND AS CYP2E1 INHIBITOR” (SHANGHAI LING XI BIOTECHNOLOGY DEVELOPMENT CO., LTD., priority 2020, published 2023)
# Marks after values point to notes of the source that are not given here.
# What was measured:
# [1] = system: CFA-induced rheumatoid arthritis in rats; assay: CFA-induced rat rheumatoid arthritis model; type: in vivo, SD rat; settings: for rat foot swelling alleviation rate: at 36 h
# Description: Experimental method: An SD rat rheumatoid arthritis model was constructed with CFA (0.1 mL/rat). The SMI0 intervention group was divided into an ultra-low-dose group, a low-dose group, a medium-dose group, and a high-dose group, which were intragastrically administered with the compound SMI0 respectively at 1 mg/kg, 6 mg/kg, 30 mg/kg, and 150 mg/kg every day starting from two days before modeling; and the positive control group was intragastrically administered with celecoxib at 5 mg/kg. 10 animals were provided for each group. 1 d before administration of CFA to the rats, the above grouping and doses were adopted, and then the rats were administered once every day until the modeling was completed on day 10. Each rat was administered with CFA at a sole of a right hindfoot. A volume of each of the right hindfeet of rats was measured every day by a rat foot swelling measuring instrument (which was measured every 12 h in the first 3 days). A foot swelling rate of each rat was calculated according to a change of a right hindfoot volume of the rat relative to a hindfoot volume of the rat before the CFA administration at each time point, and a difference in foot swelling rate between groups of rats was analyzed.
# [2] = system: hyperlipidemia and aortic atherosclerotic plaques in ApoE-/- mice; assay: ApoE-/- mouse hyperlipidemia model induced by a high-fat diet; type: in vivo; settings: for High-density lipoprotein / Low-density lipoprotein / Total cholesterol / Triglyceride: serum, 16 weeks, n=8
# Description: Experimental method: ApoE^−/− mice were fed with a high-fat and high-cholesterol feed to construct an ApoE^−/− mouse hyperlipidemia model. An SMI0 intervention group was divided into a low-dose intervention group and a high-dose intervention group, which were administered with the compound SMI0 at 30 mg/kg and 150 mg/kg every day from the beginning of modeling to the end of the 16-week modeling. At the end of the experiment, blood was collected from the orbit, and the levels of blood lipid-associated indexes in the serum of each mouse were determined by an automatic biochemical analyzer (8 mice in each group).
# [3] = system: other CYP enzymes; assay: Determination of selectivity of a CYP2E1 inhibitor: other CYP enzymes; type: biochemical; settings: mixed human liver microsome, probe substrates
# From the text: (§1) With a mixed liver microsome of a healthy individual as a research object, probe drugs CYP1A2, CYP2A6, CYP2B6, CYP2C8, CYP2C9, CYP2C19, CYP2D6, CYP2E1, and CYP3A4 were selected to determine an in vitro inhibitory effect of an inhibitor to be tested on the metabolism of the probe drugs CYP1A2, CYP2A6, CYP2B6, CYP2C8, CYP2C9, CYP2C19, CYP2D6, CYP2E1, and CYP3A4 for the mixed liver microsome of the healthy human, and the selectivity of the inhibitor to be tested for a CYP2E1 inhibitory effect was evaluated.
# (§2) The CYP1A2 probe is 6.25 μM to 800 μM phenacetin or 27.5 μM to 12,520 μM caffeine; • the CYP2A6 probe is 0.156 μM to 20 μM coumarin or 12.5 μM to 2,000 μM nicotine; • the CYP2B6 probe is 7.8 μM to 500 μM bupropion or 0.25 mM to 30 mM cyclophosphamide; • the CYP2C8 probe is 2.5 μM to 80 μM paclitaxel or 0.125 μM to 128 μM amodiaquine; • the CYP2C9 probe is 31.25 μM to 2,000 μM tolbutamide or 0.1 μM to 200 μM diclofenac; • the CYP2C19 probe is 3.9 μM to 500 μM omeprazole or 1.95 μM to 1,000 μM mephenytoin; • the CYP2D6 probe is 0.625 μM to 96 μM dextromethorphan or 0.0195 μM to 80 μM propafenone; and • the CYP3A4 probe is 0.39 μM to 50 μM midazolam or 1.98 μM to 1,000 μM testosterone.
# (§3) An incubation system in a total volume of 100 μL was adopted, including a substrate, an inhibitor of different concentrations, a liver microsomal protein, and PBS. […]
# [4] = biological target: T1, CYP2A6 (Homo sapiens, UniProt P11509); assay: Determination of selectivity of a CYP2E1 inhibitor: CYP2A6; type: biochemical; settings: mixed human liver microsome, 2.5 μM coumarin probe; read-out: IC50 for 2A6 inhibition
# T1 construct: With a mixed liver microsome of a healthy individual as a research object; from tissue; host or cells: mixed (pooled) human liver microsomes of healthy individuals
# T1 sequence (P11509 whole entry): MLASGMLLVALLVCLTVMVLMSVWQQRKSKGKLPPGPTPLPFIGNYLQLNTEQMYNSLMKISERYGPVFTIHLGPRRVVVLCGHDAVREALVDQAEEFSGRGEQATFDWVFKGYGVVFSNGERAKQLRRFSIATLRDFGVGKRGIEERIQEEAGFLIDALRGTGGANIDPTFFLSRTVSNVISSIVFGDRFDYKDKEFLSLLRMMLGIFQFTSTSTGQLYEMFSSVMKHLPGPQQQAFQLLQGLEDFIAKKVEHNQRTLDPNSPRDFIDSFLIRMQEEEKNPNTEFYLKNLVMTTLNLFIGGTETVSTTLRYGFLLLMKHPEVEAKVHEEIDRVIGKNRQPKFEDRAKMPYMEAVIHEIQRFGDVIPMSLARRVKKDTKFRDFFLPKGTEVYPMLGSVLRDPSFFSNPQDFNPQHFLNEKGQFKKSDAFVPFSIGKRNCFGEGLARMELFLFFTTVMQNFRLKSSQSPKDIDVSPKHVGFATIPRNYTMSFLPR
# From the text: as §1, §2, §3
# [5] = biological target: T2, CYP2E1 (Mus musculus, UniProt Q05421); assay: CYP2E1 activity (liver microsome) in mouse Lewis lung cancer in situ model; type: in vivo; settings: SMI0 intervention group vs model group, P<0.05
# T2 construct: from tissue; host or cells: liver microsomes of treated model mice (calcium precipitation)
# T2 sequence (Q05421 whole entry): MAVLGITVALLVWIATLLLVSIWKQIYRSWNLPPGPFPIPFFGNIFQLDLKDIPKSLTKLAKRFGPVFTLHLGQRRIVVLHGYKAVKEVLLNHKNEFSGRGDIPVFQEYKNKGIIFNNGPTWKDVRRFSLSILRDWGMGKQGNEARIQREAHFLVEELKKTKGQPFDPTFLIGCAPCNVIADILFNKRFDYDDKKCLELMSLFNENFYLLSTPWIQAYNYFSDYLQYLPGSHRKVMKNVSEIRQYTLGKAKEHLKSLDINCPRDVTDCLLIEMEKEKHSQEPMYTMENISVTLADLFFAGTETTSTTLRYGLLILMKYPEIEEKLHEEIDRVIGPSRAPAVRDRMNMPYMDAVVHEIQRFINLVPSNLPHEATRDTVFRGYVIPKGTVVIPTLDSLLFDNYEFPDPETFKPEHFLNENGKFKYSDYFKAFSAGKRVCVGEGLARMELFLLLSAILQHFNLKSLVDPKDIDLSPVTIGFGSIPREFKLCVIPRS
# Description: Experimental method: A calcium precipitation method was used to prepare a mouse liver microsome, and a Braford method was used to determine a protein concentration in the microsome. An incubation system was prepared with 2×PBS, a CZX solution, and the liver microsome at a final concentration of 0.5 mg/mL, and then pre-incubated at 37° C. for 5 min; NADPH was added to initiate a reaction, and a resulting mixture was incubated at 37° C. for 30 min and then placed on ice to terminate the reaction; and ethyl acetate was added to extract 6-hydroxychlorzoxazone, a resulting mixture was vortexed and centrifuged, and a resulting upper organic phase was collected and blow-dried with nitrogen. A peak area of a CZX metabolite 6-hydroxychlorzoxazone was detected by HPLC under the following conditions: methanol:water=56:44, and detection wavelength: 287 nm. A concentration A C of the metabolite 6-hydroxychlorzoxazone was calculated through substitution into a standard curve; and a reaction rate of conversion of CZX into 6-hydroxychlorzoxazone was calculated according to V(pmol/min/mg)=(ΔC*1000)/(B*T) to evaluate an enzymatic activity of CYP2E1, where B represents a protein concentration of the microsome (mg/mL) and T represents an incubation time (min). A correlation between CYP2E1 activity and lung tumor weight in the Lewis lung cancer in situ model was analyzed.
smiles,measurement,setting,value
CC(=O)c1scnc1C [SMI0],rat foot swelling alleviation rate,[1]; SMI0 1 mg/kg ig daily,20.8%
same,rat foot swelling alleviation rate,[1]; SMI0 6 mg/kg ig daily,34.2%
same,rat foot swelling alleviation rate,[1]; SMI0 30 mg/kg ig daily,44.1%
same,rat foot swelling alleviation rate,[1]; SMI0 150 mg/kg ig daily,52.5%
same,rat foot swelling caused by CFA,"[1]; SMI0 intervention group vs model group, P<0.001",significantly alleviated
same,total area of aortic root lesions (HE staining),"[2]; SMI0 high-dose group 150 mg/kg vs model group, P<0.01",significantly reduced
same,total area of aortic root lesions (oil red O staining),"[2]; SMI0 high-dose group 150 mg/kg vs model group, P<0.05",significantly reduced
same,High-density lipoprotein,[2]; SMI0 30 mg/kg daily,2.37 ± 0.49 mmol/L
same,Low-density lipoprotein,[2]; SMI0 30 mg/kg daily,17.94 ± 11.16 mmol/L
same,Total cholesterol,[2]; SMI0 30 mg/kg daily,20.45 ± 10.77 mmol/L
same,Triglyceride,[2]; SMI0 30 mg/kg daily,0.56 ± 0.04 mmol/L
same,High-density lipoprotein,[2]; SMI0 150 mg/kg daily,3.68 ± 0.33*^@ mmol/L
same,Low-density lipoprotein,[2]; SMI0 150 mg/kg daily,1.50 ± 0.77^@ mmol/L
same,Total cholesterol,[2]; SMI0 150 mg/kg daily,5.35 ± 0.55^@ mmol/L
same,Triglyceride,[2]; SMI0 150 mg/kg daily,0.40 ± 0.10 mmol/L
same,inhibitory effect for other CYP enzymes,[3],no significant inhibitory effect
same,IC50,[4],76.2 µM
same,CYP2E1 activity,[5],significantly reduced
